US9163003B2, “4-piperidinyl compounds for use as tankyrase inhibitors” (NOVARTIS AG, priority 2011, dated 2015)
Where two headings read alike, the source gives them in different places.

How the values were obtained:
[1] = biological target: tankyrase 2 protein PARP domain, TNKS2P (GST-tagged) (Homo sapiens (Human), UniProt Q9H2K2); test: TNKS2 autoparsylation (AP) biochemical assay, LC/MS detection of nicotinamide; details: 20 nM enzyme, 250 μM NAD+, 60 min room temperature
[2] = biological target: human tankyrase 1 PARP catalytic domain, TNKS1P (GST-tagged) (Homo sapiens (Human), UniProt O95271); test: TNKS1 autoparsylation (AP) biochemical assay, LC/MS detection of nicotinamide; details: 20 nM enzyme, 250 μM NAD+, 60 min room temperature
human tankyrase 1 PARP catalytic domain, TNKS1P (GST-tagged), sequence (O95271 1112-1317): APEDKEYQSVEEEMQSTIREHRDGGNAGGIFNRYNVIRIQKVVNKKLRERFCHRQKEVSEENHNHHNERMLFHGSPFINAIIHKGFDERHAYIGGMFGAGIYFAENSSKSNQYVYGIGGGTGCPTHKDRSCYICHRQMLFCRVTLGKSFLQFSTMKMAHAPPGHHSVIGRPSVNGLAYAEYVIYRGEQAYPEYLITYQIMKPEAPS
Description: The human tankyrase 1 PARP catalytic domain, TNKS1P, was cloned into a pDONR221 vector using the Invitrogen Gateway Technology. This entry clone was then subcloned into the destination vector pDEST20 to obtain the N-terminal Glutathione S-transferase (GST)-tagged fusion protein.
The autoparsylation activity of the TNKS 1/2 or PARP1/2 enzymes was measured by the liquid chromatography-mass spectrometry (LC/MS) detection of nicotinamide as readout. Compound activity in inhibiting the TNKS and PARP autoparsylation was evaluated by IC50 measurements.

[3] = tested on: Wnt ligand-induced signaling; test: Wnt-responsive Super-TOpFlash (STF) luciferase reporter gene assay in HEK293 cells; format: cell-based; details: Wnt3A condition medium induced
Description: Compound activity in inhibiting Wnt ligand-induced signaling was measured using a Wnt-responsive Super-TOpFlash (STF) luciferase reporter gene assay in HEK293 cells. On day 1 of the assay, cells were plated at a density of 8000 cells per well of 384-well plate in 25 μl medium containing 5% fetal bovine serum (FBS). On the second day, […] condition medium (CM) produced from mouse L cells was added to the cells to induce Wnt signaling, followed by addition of 5 μL of compounds each well in 10-point serial dilution. On the third day, the luciferase activity was measured by the Bright-Glo™ Luciferase Assay System following manufacture's protocol (Promega, E2620). The Inhibition was calculated as: (Maximum Wnt-induced signaling−Sample)/(Maximum Wnt-induced signaling−Background)*100. “Maximum Wnt-induced signaling” is the STF signal level induced by 20% Wnt3A CM without compound; and “Background” is the STF signal level without the addition of Wnt3A CM or compound.

[4] = tested on: Axin2 protein; test: Cellular ELISA assay for stabilizing the Axin2 protein in SW480 cells; format: cell-based; details: 24 hrs treatment, read-out: Axin AC50
Description: Compound activity in stabilizing the Axin2 protein was measured by Sandwich Enzyme-Linked Immuosorbent (ELISA) assay in the colorectal cell line SW480. 30,000 SW480 cells were seeded per well in 96-well plate and incubated overnight prior to compound treatment. Cells were then treated with compounds in 6-point dilution starting at 10 μM for 24 hrs. Cells were then washed with 100 μL of cold Phosphate Buffer Saline (PBS), and lysed in 125 μl of cold 1× lysis buffer (Cell Signaling Technology, 9803) supplemented with Protease inhibitor (Roche, 11836170) and Phosphatase inhibitors (Sigma, P2850, P5726). For the ELISA assay, anti Axin-2 capture antibody (Strategic Diagnostics) antibody was diluted to a concentration of 1 μg/ml (1:1000) in Carbonate Coating buffer, pH 9.2 (Sigma, C3041-50CAP). 100μ of the diluted anti Axin-2 capture antibody per well was then used to coat the 96-well ELISA plate (Thermo Electron Corp., MicroLite 1 flat bottom plate #7571) overnight at 4° C. Plates were then washed three times with 300 μl/well of wash solution, PBST20 (PBS+0.05% Tween), and blocked with 300 μl/well 1% BSA/PBS (BSA, Millipore Probumin #82-045-1) for 1.5 hours at room temperature while shaking gently. After blocking, plates were then washed three times with 300 μl/well of wash solution. 100 μL of prepared SW480 cell lysate was then added to each well and incubated at room temperature for 2 hours while shaking gently. After washing, 100 μL of Biotinylated anti-Axin2 antibody (CST, 2151) was added to each well and incubated room temperature for 2 hours. 100 μL of Streptavidin-HRP (R&D systems, DY998) diluted 1:200 in 1% BSA/PBS was then added in each well and incubate for 30 mins at R/T in the dark. Signal was detected by Chemiluminescence (Pierce SuperSignal ELISA Femto #3704), and measured on PerkinElmer Wallac 1420 plate reader.

[5] = tested on: Non-small lung cancer ABC-1 cells; test: Cellular proliferation assay, ABC-1 cells (CellTiter-Glo); format: cell-based; details: 3 days of compound treatment
Description: Non-small lung cancer ABC-1 cells were plated at 5000 cells per well in 96-well plates and treated with 8 serial compound dilutions starting from 10 μM as the highest concentration. Viable cells were measured after 3 days of compound treatment using the CellTiter-Glo assay (Promega, G7570). Assay was performed following the manufacture protocol.

tankyrase 2 protein PARP domain, TNKS2P (GST-tagged), sequence (Q9H2K2 959-1164): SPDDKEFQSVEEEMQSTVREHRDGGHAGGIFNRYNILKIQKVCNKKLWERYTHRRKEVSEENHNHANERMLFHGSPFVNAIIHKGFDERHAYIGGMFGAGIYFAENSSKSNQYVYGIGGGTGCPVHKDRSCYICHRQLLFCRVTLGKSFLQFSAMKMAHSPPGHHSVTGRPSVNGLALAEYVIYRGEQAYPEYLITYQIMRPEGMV

Compound	IC50 [1]	IC50 [2]	IC50 ([3]; Homo sapiens)	AC50 ([4]; Homo sapiens)	IC50 ([5]; Homo sapiens, 72 h)	IC50 [3]	AC50 [4]	IC50 [5]
COc1ccc(C(=O)C2CCN(C3CCN(Cc4cccc(Cl)c4C#N)C3=O)CC2)cc1 (stereo not drawn) [Example 1, 2-Chloro-6-{3-[4-(4-methoxy-benzoyl)-piperidin-1-yl]-2-oxo-pyrrolidin-1-ylmethyl}-benzonitrile]	81 ± 1 nM	162 ± 4 nM	99 ± 11 nM	239 ± 31 nM	408 nM	–	–	–
COc1ccc(C(=O)C2CCN([C@@H]3CCN(Cc4nc5c(c(=O)[nH]4)COCC5)C3=O)CC2)cc1 [Example 4, 2-{(R)-3-[4-(4-Methoxy-benzoyl)-piperidin-1-yl]-2-oxo-pyrrolidin-1-ylmethyl}-3,5,7,8-tetrahydro-pyrano[4,3-d]pyrimidin-4-one]	600 ± 330 nM	1600 ± 1200 nM	95 ± 11 nM	310 ± 270 nM	1020 ± 340 nM	–	–	–
COc1ccc(C(=O)C2CCN(C3CCN(Cc4ccc(Cl)c(C#N)c4)C3=O)CC2)cc1 (stereo not drawn) [Example 5, 2-Chloro-5-((3-(4-(4-methoxybenzoyl)piperidin-1-yl)-2-oxopyrrolidin-1-yl)methyl)benzonitrile]	15 ± 1 nM	36 ± 1 nM	17 ± 3 nM	66 ± 1 nM	156 nM	–	–	–
COc1ccc(C(=O)C2CCN(C3CCN(Cc4nc5ccsc5c(=O)[nH]4)C3=O)CC2)cc1 (stereo not drawn) [Example 7]	83 ± 5 nM	211 ± 63 nM	54 ± 12 nM	451 ± 68 nM	1470 nM	–	–	–
COc1ccc(C(=O)C2CCN(C3CCN(Cc4nc5sc(C)cc5c(=O)[nH]4)C3=O)CC2)cc1 (stereo not drawn) [Example 8]	141 ± 40 nM	96 ± 28 nM	18 ± 4 nM	78 ± 13 nM	133 nM	–	–	–
O=C(c1ccc(F)cc1)C1CCN([C@@H]2CCN(Cc3nc4c(c(=O)[nH]3)COCC4)C2=O)CC1 [Example 12, 2-{(R)-3-[4-(4-Fluoro-benzoyl)-piperidin-1-yl]-2-oxo-pyrrolidin-1-ylmethyl}-3,5,7,8-tetrahydro-pyrano[4,3-d]pyrimidin-4-one]	2120 ± 50 nM	5340 ± 340 nM	620 ± 90 nM	> 10000 nM	> 10000 nM	–	–	–
COc1ccc(C(=O)C2CCN([C@@H]3CCN(Cc4nc5c(c(=O)[nH]4)COCC5)C3=O)CC2)cc1C [Example 14, 2-{(R)-3-[4-(4-Methoxy-3-methyl-benzoyl)-piperidin-1-yl]-2-oxo-pyrrolidin-1-ylmethyl}-3,5,7,8-tetrahydro-pyrano[4,3-d]pyrimidin-4-one]	206 ± 20 nM	711 ± 20 nM	31 ± 3 nM	128 ± 130 nM	149 nM	–	–	–
COc1ccc2c(c1)CC1(CCN(C3CCN(Cc4nc5c(c(=O)[nH]4)COCC5)C3=O)CC1)C2=O (stereo not drawn) [Example 15, 2-((3-(5-methoxy-1-oxo-1,3-dihydrospiro[indene-2,4′-piperidine]-1′-yl)-2-oxopyrrolidin-1-yl)methyl)-7,8-dihydro-3H-pyrano[4,3-d]pyrimidin-4(5H)-one]	–	33 ± 2 nM	< 0.5 nM	16 ± 1 nM	43 nM	–	–	–
COc1ccc2c(c1)CC1(CCN([C@H]3CCN(Cc4nc5c(c(=O)[nH]4)COCC5)C3=O)CC1)C2=O [Example 16]	–	12 ± 1 nM	–	–	–	1.7 ± 0.2 nM	7 ± 1 nM	82 nM
COc1ccc2c(c1)CC1(CCN([C@@H]3CCN(Cc4nc5c(c(=O)[nH]4)COCC5)C3=O)CC1)C2=O [Example 17]	–	3850 ± 480 nM	–	–	–	396 ± 10 nM	1790 ± 140 nM	2000 ± 900 nM
COc1ccc(C(=O)C2CCN(C3CCCN(Cc4nc5c(c(=O)[nH]4)COCC5)C3=O)CC2)cc1 (stereo not drawn) [Example 18, 2-[4-(4-Methoxy-benzoyl)-2′-oxo-[1,3′]bipiperidinyl-1′-ylmethyl]-3,5,7,8-tetrahydro-pyrano[4,3-d]pyrimidin-4-one]	15 ± 1 nM	46 ± 1 nM	5.6 ± 0.7 nM	51 ± 7 nM	99 nM	–	–	–
COc1ccc(C(=O)C2CCN(C3CCN(Cc4nccc(=O)[nH]4)C3=O)CC2)cc1 (stereo not drawn) [Example 22, 2-{3-[4-(4-Methoxy-benzoyl)-piperidin-1-yl]-2-oxo-pyrrolidin-1-ylmethyl}-3H-pyrimidin-4-one]	764 ± 56 nM	1500 ± 120 nM	390 ± 190 nM	–	–	–	–	–
COc1ccc(C(=O)C2CCN(C3CCN(Cc4nc5ccccc(=O)c5[nH]4)C3=O)CC2)cc1 (stereo not drawn) [Example 27, 2-((3-(4-(4-methoxybenzoyl)piperidin-1-yl)-2-oxopyrrolidin-1-yl)methyl)cyclohepta[d]imidazol-4(3H)-one]	–	36 ± 3 nM	0.4 ± 0.3 nM	3.2 ± 0.1 nM	1.5 nM	–	–	–
COc1ccc(C(=O)C2CCN([C@H]3CCN(Cc4nc5ccccc(=O)c5[nH]4)C3=O)CC2)cc1 [Example 30, 2-{(S)-3-[4-(4-Methoxy-benzoyl)-piperidin-1-yl]-2-oxo-pyrrolidin-1-ylmethyl}-3H-cycloheptaimidazol-4-one]	–	9.5 ± 0.7 nM	1.1 ± 0.1 nM	0.6 ± 0.1 nM	0.86 ± 0.1 nM	–	–	–
COc1ccc(C(=O)C2CCN([C@H]3CCN(CC(=O)Nc4nnc5n4CCS5)C3=O)CC2)cc1 [Example 33]	–	830 ± 20 nM	–	–	–	–	1340 ± 110 nM	1610 nM
COc1ccc(C(=O)C2CCN(C3CCN(CC(=O)Nc4nnnn4C)C3=O)CC2)cc1 (stereo not drawn) [Example 36, 2-(3-(4-(4-methoxybenzoyl)piperidin-1-yl)-2-oxopyrrolidin-1-yl)-N-(1-methyl-1H-tetrazol-5-yl)acetamide]	1480 ± 20 nM	3080 ± 230 nM	7600 ± 800 nM	–	> 10000 nM	–	–	–
COc1ccc(C(=O)C2CCN(C3CCN(CC(=O)Nc4nncc5c4CCCO5)C3=O)CC2)cc1 (stereo not drawn) [Example 37, N-(3,4-dihydro-2H-pyrano[2,3-d]pyridazin-5-yl)-2-(3-(4-(4-methoxybenzoyl)piperidin-1-yl)-2-oxopyrrolidin-1-yl)acetamide]	970 ± 60 nM	3010 ± 60 nM	396 ± 26 nM	–	2230 nM	–	–	–
COc1ccc(C(=O)C2CCN(C3CCN(CC(=O)Nc4noc5ncccc45)C3=O)CC2)cc1 (stereo not drawn) [Example 38, N-(isoxazolo[5,4-b]pyridin-3-yl)-2-(3-(4-(4-methoxybenzoyl)piperidin-1-yl)-2-oxopyrrolidin-1-yl)acetamide]	4560 ± 40 nM	6500 ± 800 nM	2030 ± 180 nM	–	7900 nM	–	–	–
